{"source": "patent US6100077A", "about": "“Isolation of a gene encoding diacylglycerol acyltransferase” (priority 1998, dated 2000)", "key": {"[1]": {"target": "T1, human ACAT1 (Homo sapiens, UniProt P35610)", "T1 construct": "A cDNA corresponding to the coding region of human ACAT1 flanked by 5 bp of 5' untranslated region and 1 bp of 3' untranslated region; made in house; host or cells: Saccharomyces cerevisiae strain SCY059 (are1 are2 deleted), vector pRS426GP, GAL1/GAL10 promoter; microsomes", "T1 sequence (P35610 1-550)": "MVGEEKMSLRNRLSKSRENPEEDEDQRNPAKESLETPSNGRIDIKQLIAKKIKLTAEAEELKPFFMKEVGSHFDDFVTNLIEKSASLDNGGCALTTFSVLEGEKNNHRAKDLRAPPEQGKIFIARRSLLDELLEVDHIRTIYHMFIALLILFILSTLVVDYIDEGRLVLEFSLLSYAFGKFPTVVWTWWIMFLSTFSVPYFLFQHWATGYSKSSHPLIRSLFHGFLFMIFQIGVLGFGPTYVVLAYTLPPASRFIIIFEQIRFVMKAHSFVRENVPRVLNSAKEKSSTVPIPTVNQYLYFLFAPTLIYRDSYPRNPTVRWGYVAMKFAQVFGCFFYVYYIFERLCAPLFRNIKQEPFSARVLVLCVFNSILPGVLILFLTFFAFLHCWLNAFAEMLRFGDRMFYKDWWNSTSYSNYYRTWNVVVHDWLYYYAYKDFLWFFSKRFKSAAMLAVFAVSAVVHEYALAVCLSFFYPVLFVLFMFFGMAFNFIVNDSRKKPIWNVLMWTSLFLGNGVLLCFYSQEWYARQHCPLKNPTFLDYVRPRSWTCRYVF", "experiment": "In vitro assay of ACAT activity in yeast microsomes expressing human ACAT1 (inhibitor sensitivity)", "format": "biochemical", "source_text": "(§1) In Vitro Assay of ACAT Activity in Yeast Microsomes. The cDNA inserts of the longest ARGP1 and ARGP2 HepG2 library clones were removed by NotI, EcoRI digestion and ligated into the yeast expression vector pRS426GP which utilizes the galactose inducible GAL1/GAL10 promoter. A cDNA corresponding to the coding region of human ACAT1 flanked by 5 bp of 5' untranslated region and 1 bp of 3' untranslated region, in pRS426GP was described previously (27). Yeast strain, SCY059 (MATα, ade2-1, can1-1, trp1-1, ura3-1, his3-11, 15, leu2-3, 112, metl4Δ14HpaI-SalI,are1ΔNA::HIS3, are2Δ::LEU2 ) with deletions in ARE1 and ARE2, the yeast homologs of human ACAT1 (4), was transformed with the above constructs or pRS426GP using lithium acetate and nucleic acid prototrophy selection (28). […] Culturing of the transformed yeast, induction of expression, microsome isolation, and sterol esterification assays were as described previously […]. In those experiments involving diethylpyrocarbonate (DEPC) to modify histidine residues, a preincubation with 100 μM DEPC was performed as described (2).\n(§2) Assay of ACAT activity in ACAT negative yeast transformed with ARGP1 and ARGP2. The ability of ARGP1 and ARGP2 to esterify sterols was assayed in a sterol esterification deficient yeast strain (SCY059) in which the endogenous ARE genes were deleted . […]"}, "[2]": {"target": "T2, ACAT2 (ARGP2) (Homo sapiens, UniProt O75908)", "T2 construct": "The cDNA inserts of the longest ARGP1 and ARGP2 HepG2 library clones were removed by NotI, EcoRI digestion and ligated into the yeast expression vector; made in house; host or cells: Saccharomyces cerevisiae strain SCY059 (are1 are2 deleted), vector pRS426GP, GAL1/GAL10 promoter; microsomes", "T2 sequence (O75908 1-522)": "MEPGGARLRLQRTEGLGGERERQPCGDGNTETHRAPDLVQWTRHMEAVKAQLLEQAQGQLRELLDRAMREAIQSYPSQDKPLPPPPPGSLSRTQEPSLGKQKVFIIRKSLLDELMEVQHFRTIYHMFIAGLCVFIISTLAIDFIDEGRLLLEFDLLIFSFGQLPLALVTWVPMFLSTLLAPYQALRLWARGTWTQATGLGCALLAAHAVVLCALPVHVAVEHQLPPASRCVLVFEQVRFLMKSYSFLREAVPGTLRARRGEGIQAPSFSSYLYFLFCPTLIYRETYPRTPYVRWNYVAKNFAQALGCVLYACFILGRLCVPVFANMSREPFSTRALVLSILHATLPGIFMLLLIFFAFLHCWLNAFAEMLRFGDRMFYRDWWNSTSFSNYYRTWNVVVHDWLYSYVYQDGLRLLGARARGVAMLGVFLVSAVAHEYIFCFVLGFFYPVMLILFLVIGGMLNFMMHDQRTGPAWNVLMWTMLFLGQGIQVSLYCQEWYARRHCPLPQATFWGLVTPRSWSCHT", "experiment": "In vitro assay of ACAT activity in yeast microsomes expressing ARGP2 (ACAT2) (inhibitor sensitivity)", "format": "biochemical", "source_text": "as §1, §2"}, "[3]": {"test_system": "incorporation of [14C]-oleate into sterol ester", "experiment": "In vitro microsomal ACAT activity of cDNAs expressed in ACAT-negative yeast SCY059", "source_text": "as §1\nAssay of ACAT activity in ACAT negative yeast transformed with ARGP1 and ARGP2. The ability of ARGP1 and ARGP2 to esterify sterols was assayed in a sterol esterification deficient yeast strain (SCY059) in which the endogenous ARE genes were deleted . Microsomes from these yeast, transformed with an expression vector harboring no insert or cDNA inserts for ARGP1, ARGP2, or human ACAT1 were assayed in vitro for the incorporation of [^14 C]-oleate into sterol ester."}}, "note": "“Also recorded” adds a separate entry of the source. Like-named read-outs stand apart in the source and are kept apart here.", "data": [{"molecule": "CCOC(=O)OC(=O)OCC", "note": "[DEPC, diethylpyrocarbonate]", "values": [{"measurement": "Degree of Inhibition", "setting": "[1]; 100 μm DEPC, ACAT1", "result": 80, "unit": "%"}, {"measurement": "Active site Modification: Plus DEPC (100 μm) (ACAT activity)", "setting": "[1]; ACAT1 microsomes preincubated with 100 μm DEPC, triplicate", "result": "69 +/- 4"}, {"measurement": "Degree of Inhibition", "setting": "[2]; 100 μm DEPC, ACAT2", "result": 33, "unit": "%"}, {"measurement": "Active site Modification: Plus DEPC (100 μm) (ACAT activity)", "setting": "[2]; ACAT2 microsomes preincubated with 100 μm DEPC, triplicate", "result": "30 +/- 1"}]}, {"molecule": "ARGP1: ACAT Related Gene Product 1, 488 amino acid protein (SEQ ID NO:1), proposed diacylglycerol acyltransferase (protein) MGDRGSSRRRRTGSRPSSHGGGGPAAAEEEVRDAAAGPDVGAAGDAPAPAPNKDGDAGVGSGHWELRCHRLQDSLFSSDSGFSNYRGILNWCVVMLILSNARLFLENLIKYGILVDPIQVVSLFLKDPHSWPAPCLVIAANVFAVAAFQVEKRLAVGALTEQAGLLLHVANLATILCFPAAVVLLVESITPVGSLLALMAHTILFLKLFSYRDVNSWCRRARAKAASAGKKASSAAAPHTVSYPDNLTYRDLYYFLFAPTLCYELNFPRSPRIRKRFLLRRILEMLFFTQLQVGLIQQWMVPTIQNSMKPFKDMDYSRIIERLLKLAVPNHLIWLIFFYWLFHSCLNAVAELMQFGDREFYRDWWNSESVTYFWQNWNIPVHKWCIRHFYKPMLRRGSSKWMARTGVFLASAFFHEYLVSVPLRMFRLWAFTGMMAQIPLAWFVGRFFQGNYGNAAVWLSLIIGQPIAVLMYVHDYYVLNYEAPAAEA", "values": [{"measurement": "ACAT activity (sterol esterification), result in words", "setting": "[3]; expressed in yeast", "result": "did not display significant ACAT activity; also recorded: failed to detectably esterify cholesterol or ergosterol"}, {"measurement": "In Vitro Microsomal ACAT activity (cholesterol ester formation rate)", "setting": "[3]; microsomes of transformed yeast SCY059, exogenous cholesterol in Triton WR-1339, three experiments on different preparations", "result": "4 +/- 3 pmol/minute/μg microsomal prot"}]}, {"molecule": "ACAT1: human acyl Coenzyme A-cholesterol acyltransferase 1 expressed in yeast from cDNA (protein, UniProt P35610 1-550, looked up) Sterol O-acyltransferase 1: MVGEEKMSLRNRLSKSRENPEEDEDQRNPAKESLETPSNGRIDIKQLIAKKIKLTAEAEELKPFFMKEVGSHFDDFVTNLIEKSASLDNGGCALTTFSVLEGEKNNHRAKDLRAPPEQGKIFIARRSLLDELLEVDHIRTIYHMFIALLILFILSTLVVDYIDEGRLVLEFSLLSYAFGKFPTVVWTWWIMFLSTFSVPYFLFQHWATGYSKSSHPLIRSLFHGFLFMIFQIGVLGFGPTYVVLAYTLPPASRFIIIFEQIRFVMKAHSFVRENVPRVLNSAKEKSSTVPIPTVNQYLYFLFAPTLIYRDSYPRNPTVRWGYVAMKFAQVFGCFFYVYYIFERLCAPLFRNIKQEPFSARVLVLCVFNSILPGVLILFLTFFAFLHCWLNAFAEMLRFGDRMFYKDWWNSTSYSNYYRTWNVVVHDWLYYYAYKDFLWFFSKRFKSAAMLAVFAVSAVVHEYALAVCLSFFYPVLFVLFMFFGMAFNFIVNDSRKKPIWNVLMWTSLFLGNGVLLCFYSQEWYARQHCPLKNPTFLDYVRPRSWTCRYVF", "values": [{"measurement": "In Vitro Microsomal ACAT activity (cholesterol ester formation rate)", "setting": "[3]", "result": "340 +/- 76 pmol/minute/μg microsomal prot"}, {"measurement": "Active site Modification: Minus DEPC (ACAT activity)", "setting": "[3]; no DEPC preincubation, representative experiment in triplicate", "result": "340 +/- 16"}]}]}
